Each structure is given as a SMILES string. Like-named read-outs stand apart in the source and are kept apart here.

Series [1] concerns transferrin saturation index (TSI). The series is described as follows: Study A: evolution of the transferrin saturation index (TSI). In kind it is in vivo, human. The conditions noted are these: for average TSI: subgroup with IV Fe (n=25). On the procedure:
(§1) A controlled prospective study in which the evolution of ESA doses, Fe supplement doses, evolution of Fe, of transferrin, of ferritin, of the transferrin saturation index, of the haemoglobin levels and of the non-conventional markers associated with inflammatory anaemia was determined: Hepcidin and IL-6 and analysis of the hormones associated with a improved erythropoietic response. The variability of the haemoglobin was also assessed. A total of 31 patients were included in this study. The ESAs used by the patients were Epoetin beta (Neorecormon) and CERA.
(§2) This study is a controlled, observational and analytical prospective-type study of cases and controls. The study lasted six months. In the first three months the ESA dose titrations were obtained and, in the remaining three months corresponded to the maintenance phase. The data shown in the present invention form part of the MIR-EPO Study (EudraCT: 2009-015511-40) https://www.clinicaltrialsregister.eu. The design of the MIR-EPO Study assessed patients being treated with an erythropietic agent (Epoetin-beta-Neorecormon or CERA). In said patients, the differences between the groups with and without paricalcitol were analysed, due to which the results shown in the present invention related specifically to the following groups: • Group of patients being treated with paricalcitol (paricalcitol+ESA), i.e. combined treatment, and • Group of patients being treated exclusively with an ESA.
The administration of iron supplements shall always be intravenous with the aim of maintaining a transferrin saturation index (TSI %) greater than 20%.

A short description of series [2]: Study B: cross-sectional comparison of paricalcitol and calcitriol (ESA dose, Hb, PTHi, ferrokinetics). In kind it is in vivo, human. The conditions noted are these: for ESA doses required: Epoetin beta; for PTHi: median (p25-p75). On the procedure: A cross-sectional study designed to assess the differences between calcitriol and paricalcitol associated with the use of ESAs, both used in the treatment of secondary hyperparathyroidism. A total of 92 patients from the Chronic Dialysis Unit of the Hospital Universitario Son Espases (HUSE) in Palma de Mallorca and from the Chronic Haemodialysis Unit of the Policlínica Miramar were included. A total of 31 patients were treated with calcitriol and a total of 61 patients were treated with paricalcitol. The ESA analysed was Epoetin beta (Neorecormon).
In order to determine whether treatment with calcitriol is capable of giving rise to the same results obtained in the treatment with paricalcitol, the groups of patients included in Study B were analysed (Table 2), one of the groups treated with paricalcitol (n=61) and the other group treated with calcitriol (n=31).

Another series concerns plasma iron (Fe^2+). The series is described as follows: Study A: evolution of iron (Fe^2+) levels. It is filed as in vivo, human. The following applies: for Fe^2+ levels: subgroup with IV Fe supplements (n=25). On the procedure: as §1, §2
The conditions of series [3]: paricalcitol >10 μg/dialysis, haemodialysis patients; cited from earlier work.
The nature of series [4]: Study C: cross-sectional study of paricalcitol dose versus ESA dose and Hb levels. In kind it is in vivo, human. The conditions noted are these: paricalcitol 5-10 μg/week. The text has this: A cross-sectional study designed to assess the distribution of the dose of paricalcitol (μg/week) associated with a greater erythropoietic response. That is, the aim is to assess the predictive capacity of the doses of paricalcitol (μg/week) over the doses of ESA (UI/week), in addition to assessing the doses of paricalcitol to predict Hb levels (g/dl) and identify the doses of paricalcitol associated with certain Hb levels in a range between 10 and 12 g/dl, which are the levels considered to be optimum.
A total of 58 patients were included in this study. The ESA analysed was Epoetin beta (Neorecormon).
In order to determine the most adequate doses required to obtain the best Hb levels and reduce the need for ESAs, a regression analysis was performed between the Hb levels, the doses of ESAs and the dose of paricalcitol in the group of patients of Study C (FIG. 2). As can be observed in said FIG. 2, the doses comprised between 5 and 10 μg were associated to a reduced need for ESAs. This trend was modified on increasing the doses of paricalcitol, due to which, according to this regression model, the administration of doses of paricalcitol higher than 10 μg/week predicts a greater use of ESAs.

The subject of a further series is Erythropoietin. Briefly: Study A: plasma erythropoietin levels (ELISA). In kind it is in vivo, human. As to the method: Analytical determinations: all the blood samples were analysed in the central laboratory of the HUSE, applying the methodology regularly used in clinical practice: • Hb: Haemoglobin was determined on a monthly basis prior to the dialysis session and corresponding weekday. The analysis of the samples was performed using flow cytometry (CELL-DYN Sapphire®—Abbott) at the central laboratory of the HUSE. • Klotho: Human Soluble α-Klotho Assay Kit—IBL. ELISA (Enzyme-LinkedImmunoSorbentAssay) sandwich type using two types of high-specificity anti-Human Klotho antibodies (67G3 and 91F1). Using TeTraMeltilBenzidina (TMB) as a chromogeneous agent. • Hepcidin: DGR HepcidinProhormone ELISA kit. ELISA (Enzyme-LinkedImmunoSorbentAssay) of competitive type with anti-Pro-Hepcidin (polyclonal) antibodies. • IL-6: Quantikine ELISA Human IL-6 immunoassay. ELISA (Enzyme-LinkedImmunoSorbentAssay) sandwich type using specific antibodies for mouse monoclonal and polyclonal IL-6. • Erythropoietin: Quantikine IVD ELISA Human Erythropoietin Immunoassay. […]
The non-conventional inflammatory parameters were determined in months 3 and 6 of the study, due to the fact that it is considered that the first three months of the study were dedicated to ESA dose titration and the last three months to the maintenance phase, as mentioned previously. […]

Series [5] can be described thus: Study A (MIR-EPO): ESA dose requirements. It is filed as in vivo, human. On the procedure:
as §1
as §2, with “The data shown in the present invention form part of the MIR-EPO Study (EudraCT: 2009-015511-40) https://www.clinicaltrialsregister.eu.” left out, “ESA. […]” for “ESA.”

Another series deals with PTH. The conditions noted are these: oral paricalcitol, cited from earlier work.

In the case of `C=C1CC[C@H](O)C/C1=C/C=C1\CCC[C@]2(C)[C@@H]([C@H](C)CCCC(C)(C)O)CC[C@@H]12` [hidroferol, calcifediol], the “effect over TSI” value in series [1] (6 months) was “not beneficial”. The TSI levels was 29±12% in series [1] (month 0), 33±14% in series [1] (month 3) and 25±9% in series [1] (month 6).

As to `C=C1/C(=C\C=C2/CCC[C@]3(C)[C@@H]([C@H](C)CCCC(C)(C)O)CC[C@@H]23)C[C@@H](O)C[C@@H]1O` [calcitriol], in series [2], the Ferritin is listed as 168 (111-298) ng/ml, the Hb levels came to 11.10 ± 1.16 g/dL, the TSI % worked out at 24 ± 10% and the ESA doses required is 9000 UI/week. In series [2], the PTHi is 358 (230-623) pg/ml.

As for `C[C@H](/C=C/[C@H](C)C(C)(C)O)[C@H]1CC[C@H]2/C(=C/C=C3C[C@@H](O)C[C@H](O)C3)CCC[C@]12C` [paricalcitol, 19-nor-1, 25-(OH) 2-vitamin D2], the entries for the “Iron (Fe^2+) levels” value with plasma iron (Fe^2+) (month 0), in the series with plasma iron (Fe^2+) (month 3) and in the series on plasma iron (Fe^2+) (month 6) were 68 ± 23 µg/dL, 68 ± 28 µg/dL and 66 ± 37 µg/dL, respectively. The “Fe^2+ levels” value in the series with plasma iron (Fe^2+) (month 0) amounted to 61 ± 16 µg/dL; in the series on plasma iron (Fe^2+) (month 3), 57 ± 14 µg/dL; in the series on plasma iron (Fe^2+) (month 6) it was 68 ± 37 µg/dL. Besides, the Ferritin in series [2] is recorded as 494 (244-701) ng/ml. The Hb levels in series [2] worked out at 11.89 ± 0.13 g/dL. Besides, the TSI % in series [2] was 30 ± 10%. Also, the ESA doses required result in series [2] is “approximately 4000 UI/week”. The PTHi in series [2] was 276 (170-449) pg/ml. Besides, the “average TSI” value is 25±6% in series [1] (month 0), 24±5% in series [1] (month 3) and 30±19% in series [1] (month 6). Further, in series [3], the calcium levels was 9.8 mg/dL. Besides, the “plasma Hb levels predicted by regression” value in series [4] is recorded as 10-12 g/dl. Also, the plasma erythropoietin levels is given as 8.6 (4.6-16.7) mUI/ml in the series on Erythropoietin (month 3) and 20.2 (7.2-33.6) mUI/ml in the series on Erythropoietin (month 6). Also, in series [5] (months 0-6), the “evolution of ESA requirements” value is “significant decrease”. Also, the “lower dose of ESA versus group treated exclusively with ESA” value in series [5] (subgroup with IV Fe, month 6) came to 24%. Besides, the PTH levels in the series on PTH (after treatment) is 93 pg/mL; with PTH (basal level), 147 pg/mL. For the same compound, the “reduction of PTH levels with respect to the basal level” value in the series on PTH is recorded as approximately 40%.

The record behind these values is patent US11464791B2, “Use of paricalcitol in the treatment of inflammatory anaemia” (priority 2014, dated 2022).
